Assay results reported in PMC5047629, “Synthesis, Pharmacological Profile and Docking Studies of New Sulfonamides Designed as Phosphodiesterase-4 Inhibitors” (PLoS ONE, 2016).

What was measured:
[1] = system: guinea-pig tracheal smooth muscle cells; assay: cAMP intracellular levels in airway smooth muscle cells (radioimmunoassay); assay type: cell-based; conditions: 100 μM, S1B Fig
Description: Intracellular cAMP concentrations were assayed in primary cultured guinea-pig tracheal smooth muscle cells as reported. Briefly, smooth muscle cells obtained from guinea pig tracheas were cultured in DMEM containing 10% fetal bovine serum, 100 units/ml of penicillin, […] of streptomycin and 2 mM of glutamine for 3 to 7 days. After the third cell splitting, 10^6 cells/well were grown in 24-well plates. At confluence, smooth muscle cells were washed with PBS and incubated with 100 μM LASSBio-448 or forskolin (adenylyl cyclase activator), in the presence or absence of 100 μM SQ22536 (adenylyl cyclase inhibitor) for 30 min. Lysed cells were collected and the intracellular cAMP was evaluated by means of radioimmunoassay (TRK 432–Cyclic AMP^[3H] Biotrak assay system—Amersham Pharmacia Biotech, Buckinghamshire, England) following manufacturer’s guidelines.

A/J mice = assay: LPS-induced lung inflammation and airway hyper-reactivity; assay type: in vivo; conditions: LASSBio-448 2.5 and 10 mg/kg oral, cilomilast 1 mg/kg oral, 1 h before LPS, 24 h post-challenge
Description: A/J mice were anesthetized with isoflurane aerosol and then challenged with LPS (25μg/25 μL) or phosphate buffered solution (PBS) by intranasal instillation as reported. The analyses were performed 24 h after stimulation. Treatment with LASSBio-448 (2.5–10 mg/kg/mice) or cilomilast (1 mg/kg) was performed orally, 1 h before LPS exposure. LASSBio-448 was dissolved in 0.2% Tween 80, while cilomilast was dissolved in 1 M NaOH and further neutralized with 1 N HCl, before adjusting the final volume with 0.9% NaCl solution (saline). The substances were dissolved immediately before use.
Airflow and transpulmonary pressure were recorded with a Buxco pulmonary mechanics processing system (Buxco Electronics, Sharon, CT), which calculated resistance (cmH2O.s/ml) and dynamic lung compliance (mL/cmH2O) in each breath cycle. Elastance was calculated as the inverse of compliance values. Mice were anesthetized with nembutal (60 mg/kg), and the neuromuscular activity was blocked with bromide pancuronium (1 mg/kg). Animals were allowed to stabilize for 5 min and increasing concentrations of methacholine (3–27 mg/mL) were aerosolized for 5 min each. Baseline pulmonary parameters were assessed with aerosolized phosphate buffer solution (PBS).
The MPO activity present in the lung tissue was colorimetrically determined as described by Hirano (1996), with minor changes. Briefly, after lung perfusion with 20 mM EDTA in 0.9% saline, lung samples were homogenized in Hank´s balanced solution (HBSS) at pH 7.4. The homogenates were centrifuged for 10 min at 1300 xg and 4°C. Red blood cells were removed by hypotonic and hypertonic lysis and suspended cells were re-centrifuged as described above. The pellet was then suspended in HBSS at pH 7.4 containing 0.5% hexadecyltrimethyl ammonium bromide (HTAB). The homogenates were centrifuged for 30 min at 12500 xg and 4°C. The supernatants were then collected and incubated with 0.167 mg/mL of ortho-dianisidine dihydrochloride for 15 min at 37°C, after which 0.0006% H2O2 in 50 mM phosphate buffer at pH 6 was added. The reaction was stopped 10 min later by adding 50 μL of 1% sodium azide. The measurement was done at 460 nm using the SpectraMax M5 microplate reader (Molecular Devices).

PDE4B = target: T1, PDE4B (Homo sapiens, UniProt Q07343); assay: PDE4B inhibition, IMAP fluorescence polarization protocol; assay type: biochemical
T1 construct: purchased MDS PHARMA
T1 sequence (Q07343 whole entry): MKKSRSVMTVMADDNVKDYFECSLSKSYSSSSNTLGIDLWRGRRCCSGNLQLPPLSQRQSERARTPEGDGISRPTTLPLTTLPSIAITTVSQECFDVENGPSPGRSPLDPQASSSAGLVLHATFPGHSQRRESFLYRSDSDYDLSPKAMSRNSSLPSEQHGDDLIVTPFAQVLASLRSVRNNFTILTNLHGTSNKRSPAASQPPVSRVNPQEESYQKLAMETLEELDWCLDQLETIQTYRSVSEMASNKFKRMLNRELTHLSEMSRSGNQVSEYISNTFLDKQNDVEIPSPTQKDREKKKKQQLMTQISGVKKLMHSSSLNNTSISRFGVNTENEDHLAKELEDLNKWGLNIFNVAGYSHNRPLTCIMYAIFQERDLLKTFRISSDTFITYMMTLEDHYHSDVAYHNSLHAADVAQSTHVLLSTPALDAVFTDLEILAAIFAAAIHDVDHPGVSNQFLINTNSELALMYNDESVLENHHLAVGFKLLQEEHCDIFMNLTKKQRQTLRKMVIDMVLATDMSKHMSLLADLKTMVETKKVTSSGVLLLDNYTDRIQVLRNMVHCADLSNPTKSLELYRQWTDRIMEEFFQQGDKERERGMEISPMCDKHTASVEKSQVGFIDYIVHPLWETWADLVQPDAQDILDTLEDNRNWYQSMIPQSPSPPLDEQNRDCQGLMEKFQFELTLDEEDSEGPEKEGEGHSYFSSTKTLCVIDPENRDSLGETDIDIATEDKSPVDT
Description: The enzymatic reactions were carried at room temperature in a 96-well black plate by co-incubating 25 μL of 200 nM FAM-cAMP (R7513), 5 μL of putative inhibitory compounds and 20 μL of the PDE4 isoform dissolved in assay buffer (R7364) for 1 h. All enzymes were obtained from human recombinant sources (MDS PHARMA), whereas the other reagents were purchased from Molecular Devices. […] PDE4 inhibitors were dissolved in dimethyl sulfoxide (DMSO) at a final concentration of 0.1%.
The inhibitory activities of the new sulfonamide derivatives were evaluated for their selectivity against the four isoforms of human PDE4, i.e. PDE4A, PDE4B, PDE4C, and PDE4D, using an IMAP-FP protocol.

PDE4B1 inhibition (PDE4B; 1 μM, mean ± SEM, 3 experiments): able to inhibit | inhibition at 1 µM (PDE4B; 1 μM, mean ± SEM, 3 experiments, read-out: PDE4B1 inhibition): 31 ± 1.1% | IC50 (PDE4B; recombinant enzyme, mean ± SEM of three measurements): 1400 ± 90 nM
Structure (SMILES): COc1ccc(CCNS(=O)(=O)c2cc3c(cc2C)OCO3)cc1OC [6a (LASSBio-448), N-(3,4-dimethoxyphenethyl)-6-methylbenzo[d][1, 3]dioxole-5-sulfonamide]
cAMP intracellular levels in cultured tracheal smooth muscle cells ([1]; levels comparable to forskolin): up-regulated | cAMP elevating effect after pre-treatment with SQ22,536 ([1]; pre-treatment with 100 μM SQ22,536): clearly abrogated | LPS-induced airway hyper-reactivity (lung elastance after methacholine 3–27 mg/ml) (A/J mice; Fig 9A): dose-dependently prevented | neutrophil infiltration into the lung tissue (MPO activity) (A/J mice; Fig 9B): marked reduction
